Key:
[1] = molecular target: T1, Cyclooxygenase-1 (cyclooxygenase from ram seminal vesicles) (Ovis aries, UniProt P05979); assay: Cyclooxygenase-1 screen (COX-1); format: biochemical; conditions: 300 μM
T1 construct: cyclooxygenase from ram seminal vesicles; from tissue; host or cells: ram seminal vesicles
T1 sequence (P05979 25-600): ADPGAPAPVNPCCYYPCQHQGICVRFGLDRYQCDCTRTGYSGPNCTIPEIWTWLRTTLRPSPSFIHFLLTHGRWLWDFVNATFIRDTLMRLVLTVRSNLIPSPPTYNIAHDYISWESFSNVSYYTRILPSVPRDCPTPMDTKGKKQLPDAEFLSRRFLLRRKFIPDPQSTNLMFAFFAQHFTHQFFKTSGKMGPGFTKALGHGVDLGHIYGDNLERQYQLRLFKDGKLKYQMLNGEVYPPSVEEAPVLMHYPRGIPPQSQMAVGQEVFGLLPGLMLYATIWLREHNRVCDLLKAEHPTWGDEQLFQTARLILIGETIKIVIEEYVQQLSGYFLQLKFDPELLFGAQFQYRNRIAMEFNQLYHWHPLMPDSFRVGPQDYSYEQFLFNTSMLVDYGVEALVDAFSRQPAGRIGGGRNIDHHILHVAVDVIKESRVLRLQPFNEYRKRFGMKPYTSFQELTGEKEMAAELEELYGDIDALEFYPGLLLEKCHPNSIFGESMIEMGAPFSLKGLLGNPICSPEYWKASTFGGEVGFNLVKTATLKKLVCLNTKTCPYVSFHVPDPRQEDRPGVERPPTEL
Experimental: (§1) The compounds of the invention were screened for their anti-inflammatory activity using a series of in vitro tests the details of which are given below. The activity of various compounds against 5-lipoxygenase, cycloxygenase-1, cycloxygenase-2 and lipid peroxidase was evaluated. Results of the screening procedures are included in TABLE I, and the activity against 5-lipoxygenase at a test concentration of 1 μM in Table II.
Cyclooxygenase-1 is involved in the formation of prostaglandins and thromboxane via the oxidative metabolism of arachidonic acid. Briefly, cyclooxygenase from ram seminal vesicles is incubated with arachidonic acid (100 μm) for 2 minutes at 37° C. in the presence or absence of test compounds according to the methods of A. T. Evans et al., Biochem. Pharm. 36:2035-2037(1987) and R. Boopathy et al., Biochem J. 239:371-377 (1968). The assay is terminated by the addition of trichioroacetic acid and cyclooxygenase activity is determined by reading the absorbance at 530 nm. […]

[2] = molecular target: T2, Cyclooxygenase-2 (prostaglandin H synthetase-2) from sheep placenta (Ovis aries, UniProt P79208); assay: Cyclooxygenase-2 screen (COX-2); format: biochemical; conditions: read-out: COX-2 percent inhibition
T2 construct: cyclooxygenase-2 from sheep placenta; from tissue; host or cells: sheep placenta
T2 sequence (P79208 17-603): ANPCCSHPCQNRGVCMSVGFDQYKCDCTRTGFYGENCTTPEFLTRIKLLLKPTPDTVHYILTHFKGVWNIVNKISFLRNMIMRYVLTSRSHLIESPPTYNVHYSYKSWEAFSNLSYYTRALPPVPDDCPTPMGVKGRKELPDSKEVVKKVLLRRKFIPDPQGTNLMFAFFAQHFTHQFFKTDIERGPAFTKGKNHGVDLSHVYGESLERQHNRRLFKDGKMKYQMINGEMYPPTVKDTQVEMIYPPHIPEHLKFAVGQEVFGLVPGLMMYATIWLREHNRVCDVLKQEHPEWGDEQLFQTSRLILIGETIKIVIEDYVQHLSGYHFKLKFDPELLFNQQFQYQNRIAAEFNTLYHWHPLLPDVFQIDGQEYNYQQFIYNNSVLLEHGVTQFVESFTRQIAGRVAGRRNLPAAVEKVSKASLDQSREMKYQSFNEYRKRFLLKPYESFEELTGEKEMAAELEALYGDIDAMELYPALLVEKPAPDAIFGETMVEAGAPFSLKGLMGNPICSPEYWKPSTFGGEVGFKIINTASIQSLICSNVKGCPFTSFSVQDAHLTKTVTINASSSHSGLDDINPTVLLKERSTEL
Experimental: as §1
Cyclooxygenase-2, also known as prostaglandin H synthetase-2, catalyzes the rate- limiting step in the synthesis of inflammatory prostaglandins. In this reaction cyclooxygenase-2 catalyzes the oxygenation of unesterified precursors to form cyclic endoperoxide derivatives, including prostaglandin H. Briefly, cyclooxygenase-2 from sheep placenta, 14 μg/assay tube, is incubated with arachidonic acid (500 μM) for 1.5 minutes at 27° C. in the absence or presence of test compounds according to the methods of A. T. Evans, et al., Biochem Pharm. […] Res. Comm. […] Compounds are screened at 300 μM.

[3] = molecular target: T3, 5-Lipoxygenase (crude enzyme preparation from rat basophilic leukemia cells, RBL-1) (Rattus norvegicus, UniProt P12527); assay: 5-Lipoxygenase screen (5-LO), 5-HETE by RIA; format: biochemical; conditions: for inhibition at 30 µM: read-out: 5-LO percent inhibition; for inhibition at 1 µM: read-out: Percent inhibition of 5-LO
T3 construct: crude enzyme preparation from rat basophilic leukemia cells (RBL-1); endogenous in cells; host or cells: rat basophilic leukemia cells (RBL-1)
T3 sequence (P12527 1-673): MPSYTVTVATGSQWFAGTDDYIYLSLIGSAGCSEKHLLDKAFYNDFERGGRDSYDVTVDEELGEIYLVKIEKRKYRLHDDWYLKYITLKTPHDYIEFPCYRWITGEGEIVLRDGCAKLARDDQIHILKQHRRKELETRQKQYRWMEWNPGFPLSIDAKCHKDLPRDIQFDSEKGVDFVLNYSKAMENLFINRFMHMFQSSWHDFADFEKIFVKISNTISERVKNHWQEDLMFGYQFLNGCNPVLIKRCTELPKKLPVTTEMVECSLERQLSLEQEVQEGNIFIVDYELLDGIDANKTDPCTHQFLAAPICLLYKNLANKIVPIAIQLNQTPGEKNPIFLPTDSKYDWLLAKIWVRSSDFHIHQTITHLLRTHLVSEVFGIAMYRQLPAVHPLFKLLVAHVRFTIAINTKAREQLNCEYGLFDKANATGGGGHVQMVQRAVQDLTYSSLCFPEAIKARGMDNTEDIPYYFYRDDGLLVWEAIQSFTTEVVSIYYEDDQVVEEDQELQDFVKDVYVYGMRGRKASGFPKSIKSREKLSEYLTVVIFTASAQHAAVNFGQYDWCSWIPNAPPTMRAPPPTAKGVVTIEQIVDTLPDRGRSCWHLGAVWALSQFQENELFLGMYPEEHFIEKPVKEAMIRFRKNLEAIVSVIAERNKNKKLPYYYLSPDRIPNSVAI
Experimental: as §1
5-Lipoxygenase catalyzes the oxidative metabolism of arachidonic acid to […] (5-HETE), the initial reaction leading to the formation of the leukotrienes. Briefly, the testing procedure utilizes a crude enzyme preparation from rat basophilic leukemia cells (RBL-1) according to the methods of T. Shimuzu et al. Pro. […] Test compounds are pre-incubated with the enzyme preparation for 5 minutes at room temperature and the reaction is initiated by the addition of arachidonic acid. Following an 8 minute incubation at room temperature, the reaction is terminated by the addition of citric acid and concentrations of 5-HETE are determined by RIA. Compounds are screened at 30 μM.

[4] = test system: Lipid peroxidation (rat liver microsomes); assay: Lipid peroxidation screen (LPO), CCl4-induced, liver microsomes; format: biochemical; conditions: 300 μM
Experimental: as §1
Lipid peroxidation is a consequence of various stimuli, including reactive free radicals. Polyunsaturated fatty acids associated with plasma membranes are degraded due to enzymatic induction by reactive agents such as CCl4, leading to cellular damage. Briefly, microsomes are prepared from rat livers and the protein concentration is determined according to the method of D. Mansuy et al., Biochem. Biophys. Res. Comm. 135:1015-1021(1986). A reaction mixture consisting of 2 mg of the microsomal preparation, an NADPH generating system, 20 mM CCl4 and test compound are incubated for 12 minutes at 37° C. The reaction is terminated by the addition of a mixture of thiobarbituric acid and trichloroacetic acid. The absorbance is read at 535 nm and is proportional to the concentration of malondialdehyde. Compounds are screened at 300 μM.

[5] = test system: Nuclear Factor-kappa B (NF-κB); assay: NF-κB lacZ (κB-Z) reporter assay in transfected Jurkat cells stimulated with A23187 and PMA; format: cell-based, human; conditions: for inhibition at 10 µM: Homo sapiens, read-out: NF-κB percent inhibition
Experimental: The human T lymphoid cell line Jurkat was transfected with a response element lacZ reporter in which transcription of the β-galactosidase gene is directed by the binding site for the NF-κB transcription factor. […] At the end of the incubation, the cells are spun down and resuspended in the buffer and FDG (fluorescein di-β-D-galactopyranoside) solution. The covered plates are further incubated in the dark for 16 hours at 25° C. […] Compounds were screened at 10 μM.

[6] = 10 μM, κB-Z Jurkat cells, A23187 and PMA (Table III)

SMILES	COX-1 percent inhibition [1] [%]	inhibition at 300 µM [2] [%]	inhibition at 30 µM [3] [%]	inhibition at 1 µM ([3]; test conc. 1 μM (Table II)) [%]	LPO percent inhibition [4] [%]	inhibition at 10 µM [5, 6] [%]	5-LO percent inhibition ([3]; Table I cell printed "@1" instead of the 30 μM of the head) [%]	IC50 ([3]; Table II) [µM]	Percent inhibition of 5-LO ([3]; test conc. 1 μM (Table II)) [%]	NF-κB percent inhibition [5, 6] [%]	IC50 ([5]; Table III) [µM]
CC1(c2ccc(-c3ccccc3)cc2)OC(=O)C(O)=C1O (racemic) [Example 2, 5-[(1,1'-Biphenyl)-4-yl]-3,4-dihydroxy-5-methyl-2(5H)-furanone]	33	22	107	15	78	90					
CCCC1(c2ccc(-c3ccccc3)cc2)OC(=O)C(O)=C1O (stereo not drawn) [Example 5, 5-[(1,1'-Biphenyl)-4-yl]-3,4-dihydroxy-5-propyl-2(5H)-furanone]	13	22	99	68	70	68					
CC(C)CC1(c2ccc(-c3ccccc3)cc2)OC(=O)C(O)=C1O (stereo not drawn) [Example 6, 5-[(1,1'-Biphenyl)-4-yl]-3,4-dihydroxy-5-(2-methylpropyl)-2(5H)-furanone]	67	46	96	70	82	59					
Cc1ccccc1C#CCCC1OC(=O)C(O)=C1O (stereo not drawn) [Example 28, 3,4-Dihydroxy-5-[(4-(2-methyl)phenyl)-3-butynyl]-2(5H)-furanone]	4	15	58		61						
CCC/C=C\Cc1ccccc1C#CCCC1OC(=O)C(O)=C1O (stereo not drawn) [Example 29]	55	26	81	56	72						
O=C1OC(CCC#Cc2ccccc2CSc2ccccc2)C(O)=C1O (stereo not drawn) [Example 30, 3,4-Dihydroxy-5-[(4-(2-(phenylthio)methyl)phenyl)-3-butynyl]-2(5H)-furanone]	26	16	100	70	62						
CCCCNS(=O)(=O)c1ccccc1C#CCCC1OC(=O)C(O)=C1O (stereo not drawn) [Example 31]	37	23	81		73						
CCCSCc1ccccc1C#CCCC1OC(=O)C(O)=C1O (stereo not drawn) [Example 33, 3,4-Dihydroxy-5-[(4-(2-(propylthio)methyl)phenyl)-3-butynyl]-2(5H)-furanone]	37	20	84		74						
CCCCCSCc1ccccc1C#CCCC1OC(=O)C(O)=C1O (stereo not drawn) [Example 34, 3,4-Dihydroxy-5-[(4-(2-(1-pentylthio)methyl)phenyl)-3-butynyl]-2(5H)-furanone]	67	43	92		63						
CCCS(=O)(=O)Cc1ccccc1C#CCCC1OC(=O)C(O)=C1O (stereo not drawn) [Example 35, 3,4-Dihydroxy-5-[(4-(2-(propylsulfonyl)methyl)phenyl)-3-butynyl]-2(5H)-furanone]	25	13	30		60						
O=C1OC(CCC#Cc2cc(Cc3ccc(F)cc3)cs2)C(O)=C1O (stereo not drawn) [Example 36, 3,4-Dihydroxy-5-[2-(4-(4-fluorophenylmethyl)thiophene)-(3-butynyl)]-2(5H)-furanone]							85	0.16	91	61	6
CCC/C=C\Cc1ccccc1/C=C\CCC1OC(=O)C(O)=C1O (stereo not drawn) [Example 40]	38	25	99		65						
